Measured values: ChEMBL document CHEMBL2073798, “P-Glycoprotein mediates the efflux of quinidine across the blood-brain barrier” (J Pharmacol Exp Ther, 1997)

Key:
[1] = target: T1, ATP-dependent translocase ABCB1 (Mus musculus, UniProt P21447); assay: TP_TRANSPORTER: increase in brain concentration in mdr1a(-/-) mouse; assay type: functional, organism-based; conditions: in vivo
[2] = target: T1, ATP-dependent translocase ABCB1; assay: TP_TRANSPORTER: increase in Quinidine concentration in brain in FVB mouse; assay type: functional, organism-based; conditions: in vivo

T1 sequence (P21447 whole entry): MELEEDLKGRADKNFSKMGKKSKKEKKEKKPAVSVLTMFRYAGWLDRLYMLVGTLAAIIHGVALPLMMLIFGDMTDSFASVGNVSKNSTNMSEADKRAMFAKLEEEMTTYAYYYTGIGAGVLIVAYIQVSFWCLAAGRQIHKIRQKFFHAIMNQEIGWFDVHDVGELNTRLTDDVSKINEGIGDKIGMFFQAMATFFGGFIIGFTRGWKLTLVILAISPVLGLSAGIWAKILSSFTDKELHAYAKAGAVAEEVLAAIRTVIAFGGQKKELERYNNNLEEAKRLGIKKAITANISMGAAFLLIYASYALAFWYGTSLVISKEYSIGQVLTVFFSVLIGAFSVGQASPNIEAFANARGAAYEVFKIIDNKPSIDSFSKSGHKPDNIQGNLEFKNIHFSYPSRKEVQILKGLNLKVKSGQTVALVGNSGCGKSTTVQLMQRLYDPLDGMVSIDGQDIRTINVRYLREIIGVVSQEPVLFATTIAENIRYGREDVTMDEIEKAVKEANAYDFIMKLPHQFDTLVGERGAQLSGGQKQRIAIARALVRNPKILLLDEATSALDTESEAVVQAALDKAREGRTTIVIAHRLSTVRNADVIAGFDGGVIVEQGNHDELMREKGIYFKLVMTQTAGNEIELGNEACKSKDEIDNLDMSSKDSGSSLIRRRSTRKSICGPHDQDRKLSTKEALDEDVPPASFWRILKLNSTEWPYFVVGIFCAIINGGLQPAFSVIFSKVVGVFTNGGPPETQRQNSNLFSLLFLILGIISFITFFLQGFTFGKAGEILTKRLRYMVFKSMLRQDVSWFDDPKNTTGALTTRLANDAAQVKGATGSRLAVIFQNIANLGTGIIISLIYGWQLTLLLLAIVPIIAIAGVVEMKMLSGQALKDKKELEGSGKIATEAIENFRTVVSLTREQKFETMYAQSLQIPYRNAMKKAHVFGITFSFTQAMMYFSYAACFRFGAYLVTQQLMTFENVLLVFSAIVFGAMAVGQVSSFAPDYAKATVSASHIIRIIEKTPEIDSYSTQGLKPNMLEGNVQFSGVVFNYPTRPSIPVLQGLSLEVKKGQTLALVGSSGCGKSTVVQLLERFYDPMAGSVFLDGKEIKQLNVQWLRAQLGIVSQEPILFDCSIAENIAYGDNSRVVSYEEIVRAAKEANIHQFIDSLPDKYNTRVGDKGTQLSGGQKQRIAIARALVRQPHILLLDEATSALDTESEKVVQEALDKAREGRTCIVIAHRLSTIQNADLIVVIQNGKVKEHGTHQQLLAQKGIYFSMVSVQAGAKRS

Activity [1]	Activity [2] [fold]	Structure (SMILES)
substrate [+]		C=C[C@H]1C[N@@]2CC[C@H]1C[C@@H]2[C@@H](O)c1ccnc2ccc(OC)cc12 [QUINIDINE]
	10.2	C/C=C/C[C@@H](C)C(=O)[C@H]1C(=O)N[C@@H](C(C)C)C(=O)N(C)CC(=O)N(C)[C@@H](CC(C)C)C(=O)N[C@@H](C(C)C)C(=O)N(C)[C@@H](CC(C)C)C(=O)N[C@@H](C)C(=O)N[C@H](C)C(=O)N(C)[C@@H](CC(C)C)C(=O)N(C)[C@@H](CC(C)C)C(=O)N(C)[C@@H](C(C)C)C(=O)N1C [VALSPODAR]
